What is called IC50 is the concentration that gives 50% inhibition. High values mean lower potency, low ones higher potency. A word on the EC50: it is the concentration needed to bring the measured effect to its halfway point. The low end stands for higher potency in that assay, the high end for lower potency in that assay.

The record followed here is article doi:10.1101/2025.10.31.685654v2 (biorxiv, 2026).

What all share (assay): two-electrode voltage clamp, Xenopus oocytes
In general terms: Two-electrode voltage clamp is typically applied to oocytes expressing channels or transporters.

For assay [1], the system named is T1, Dm-DopC1.
T1 construct: full-length homomeric pentamer expressed from cRNA in Xenopus laevis oocytes; predicted signal peptide residues 1-26
Type of assay: cell-based, Daphnia magna. The settings on record: antagonist against 50 µM dopamine; ND96 pH 7.5, -60 mV; 4-parameter fit, bottom = 0.

Assay [2] deals with T2, Dm-DopC1 (Daphnia magna, UniProt Z9WC39ES65, D188N).
T2 construct: full-length homomeric pentamer expressed from cRNA in Xenopus laevis oocytes; predicted signal peptide residues 1-26
It is filed as cell-based.

Assay [3] addresses T3, Dm-DopC1 (Daphnia magna, UniProt Z9WC39ES65, N92T).
T3 construct: full-length homomeric pentamer expressed from cRNA in Xenopus laevis oocytes; predicted signal peptide residues 1-26
It is filed as cell-based. From the text: two-electrode voltage clamp, Xenopus oocytes on Dm-DopC1

T2 sequence (Z9WC39ES65 27-520 D188N limits assumed): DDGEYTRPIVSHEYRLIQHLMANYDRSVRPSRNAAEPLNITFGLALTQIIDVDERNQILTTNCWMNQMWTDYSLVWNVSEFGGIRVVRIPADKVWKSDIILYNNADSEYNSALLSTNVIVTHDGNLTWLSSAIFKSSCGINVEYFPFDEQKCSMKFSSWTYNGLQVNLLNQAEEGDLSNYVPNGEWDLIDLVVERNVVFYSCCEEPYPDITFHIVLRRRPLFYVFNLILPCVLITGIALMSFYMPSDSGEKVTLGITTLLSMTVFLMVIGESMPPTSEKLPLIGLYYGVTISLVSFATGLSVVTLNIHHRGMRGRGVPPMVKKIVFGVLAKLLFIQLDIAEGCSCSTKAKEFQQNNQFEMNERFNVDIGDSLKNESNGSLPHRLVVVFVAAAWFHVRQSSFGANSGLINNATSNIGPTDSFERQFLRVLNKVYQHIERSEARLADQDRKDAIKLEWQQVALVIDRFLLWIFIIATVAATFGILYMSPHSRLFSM
T3 sequence (Z9WC39ES65 27-520 N92T limits assumed): as the sequence (Z9WC39ES65 27-520 D188N limits assumed) above, with N66T, N162D counted along it

The compound `CN1CCc2cccc3c2[C@H]1Cc1ccc(O)c(O)c1-3` [apomorphine] returned an IC50 in the assay with Dm-DopC1 [1] of 6 µM.
Same read-out and setting: as for `CN1CCC[C@H]1c1cccnc1` [nicotine], the figure is 109 µM.
`COc1cc2c3cc1Oc1cc(ccc1O)C[C@@H]1c4c(cc(OC)c(O)c4Oc4ccc(cc4)C[C@@H]3N(C)CC2)CC[N+]1(C)C` [tubocurarine] displayed an IC50 in the assay on Dm-DopC1 [1] of 0.9 µM.
In turn, `NCCc1ccc(O)c(O)c1` [dopamine] registered an EC50 on Dm-DopC1 [2] greater than 9000 µM.
As to `NC[C@H](O)c1ccc(O)c(O)c1` [norepinephrine], at Dm-DopC1 [3], the midpoint of the response, the EC50, lay at 440 ± 114 µM.
